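Test compounds were applied to cells in 96-well plates for 48 hours at 5 doses. GI50 = concentration required for 50% inhibition of growth. Definition used: TGI = concentration required for complete inhibition of growth.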
Legend:
Test in all cases: NCI tumour cell line growth inhibition, 48 h
ACHN renal = tested on: ACHN renal
SK-MEL-28 melanoma = tested on: SK-MEL-28 melanoma
HCT-15 colon = tested on: HCT-15 colon
SW-620 colon = tested on: SW-620 colon
NCI/ADR-RES ovarian = tested on: NCI/ADR-RES ovarian
HT29 colon = tested on: HT29 colon
A549 NSCLC = tested on: A549 NSCLC
NCI-H460 lung = tested on: NCI-H460 lung
CAKI-1 renal = tested on: CAKI-1 renal
CCRF-CEM leukemia = tested on: CCRF-CEM leukemia

Row | Structure (SMILES) | GI50 (ACHN renal) | TGI (ACHN renal) | GI50 (SK-MEL-28 melanoma) | TGI (SK-MEL-28 melanoma) | GI50 (HCT-15 colon) | TGI (HCT-15 colon) | GI50 (SW-620 colon) | TGI (SW-620 colon) | GI50 (NCI/ADR-RES ovarian) | TGI (NCI/ADR-RES ovarian) | GI50 (HT29 colon) | TGI (HT29 colon) | GI50 (A549 NSCLC) | TGI (A549 NSCLC) | GI50 (NCI-H460 lung) | TGI (NCI-H460 lung) | GI50 (CAKI-1 renal) | TGI (CAKI-1 renal) | TGI (CCRF-CEM leukemia) | GI50 (CCRF-CEM leukemia)
1 | COc1cc(-c2nccc3cc4c(cc23)OCO4)cc(OC)c1OC | 9.92 µM | > 100 µM | 16.6 µM | > 100 µM | 3.57 µM | > 100 µM | 2.77 µM | > 100 µM | 2.74 µM | > 100 µM | 2.33 µM | > 100 µM | 7.37 µM | > 100 µM | 3.83 µM | > 100 µM | 2.52 µM | 10.5 µM |  | 
2 | CCC[CH2][Sn]([CH2]CCC)([CH2]CCC)[O]C(=O)C(OC)c1ccccc1 (configuration not stated) | 0.129 µM | 0.257 µM | 0.137 µM | 0.27 µM | 0.0864 µM | 0.211 µM | 0.112 µM | 0.236 µM |  |  | 0.0507 µM | 0.168 µM | 0.117 µM | 0.265 µM | 0.0835 µM | 0.217 µM | 0.115 µM | 0.238 µM |  | 
3 | COc1cc(NC(C)CCCNC(C)C)c2ncccc2c1OC (configuration not stated) | > 100 µM | > 100 µM | > 100 µM | > 100 µM | > 100 µM | > 100 µM | 97.1 µM | > 100 µM | > 100 µM | > 100 µM |  |  | > 100 µM | > 100 µM | 34.1 µM | > 100 µM | > 100 µM | > 100 µM |  | 
4 | COC(=O)N/N=C(\C)C(CN(C)C)C(c1ccccc1)c1c(O)c2ccccc2oc1=O (configuration not stated) |  | > 100 µM |  | > 100 µM |  | > 100 µM |  | > 100 µM |  |  |  | > 100 µM |  | > 100 µM |  |  |  | > 100 µM | > 100 µM | 
5 | NC(=S)N/N=C1/CN(c2ccc(Cl)c(Cl)c2)CC(=O)C1c1nc2ccccc2s1 (configuration not stated) |  | > 100 µM |  | > 100 µM |  | > 100 µM |  | > 100 µM |  |  |  | > 100 µM |  | > 100 µM |  | > 100 µM |  | > 100 µM | > 100 µM | 
6 | Cc1cc2c(cc1CO)N1Cc3cc(C)c(CO)cc3N(C2)C1 |  |  |  | > 100 µM |  |  |  | > 100 µM |  |  |  | > 100 µM |  | > 100 µM |  | > 100 µM |  |  | > 100 µM | 
7 | CCCCN1C(=O)/C(=c2\sc3n(c2=O)C2C(NN=3)N(CC)C(=O)N2CC)c2ccccc21 (configuration not stated) |  |  |  |  |  |  | 0.442 µM | > 100 µM |  |  |  |  |  |  |  |  |  |  | > 100 µM | 1.81 µM
8 | c1cc[c]([Sn]([O]c2cccc3cccnc23)([O]c2cccc3cccnc23)[c]2ccccc2)cc1 | 0.207 µM | 0.396 µM |  |  | 0.186 µM | 0.377 µM |  |  |  |  |  |  |  |  | 1.36 µM | 3.66 µM | 0.179 µM | 0.383 µM | 0.44 µM | 0.183 µM
9 | CC(C)C(=S)N(C)O |  | > 100 µM |  | > 100 µM |  | > 100 µM |  | > 61.5 µM |  |  |  | 13.2 µM |  | > 100 µM |  | > 75.5 µM |  | > 100 µM |  | 
10 | CC(=O)OC1C(O[C@H]2CC[C@]34O[C@]35CC[C@]3(C)C(C6(C)CC[C@@H](C(C)(C)O)O6)[C@@H](O)CC3(C)[C@@H]5CC(OC3OC(CO)C(O)C(O)C3O)C4C2(C)C)OCC(O)C1O (some centres not stated) |  | > 100 µM |  | > 100 µM |  | > 57.8 µM |  | > 49.3 µM |  |  |  | > 100 µM |  | > 100 µM |  | > 100 µM |  | > 100 µM | > 31.6 µM | 
11 | C/C(CC(=O)Nc1ccc(NC(=O)C/C(C)=N\NC(N)=O)cc1)=N/NC(N)=O |  | > 100 µM |  | > 100 µM |  | > 62.5 µM |  | > 100 µM |  |  |  | > 100 µM |  | > 100 µM |  | > 100 µM |  | > 100 µM | > 100 µM | 
12 | CCN(CC)c1ccc2nc3ccc(N=Nc4ccc(O)cc4)cc3[n+](-c3ccccc3)c2c1 | 4.1 µM | 21.1 µM | 5.88 µM | 21.5 µM | 6.87 µM | > 100 µM | 2.24 µM | 6.38 µM | > 100 µM | > 100 µM | 3.15 µM | > 100 µM | 4.85 µM | > 100 µM | 3.41 µM | > 100 µM | 10.1 µM | > 100 µM |  | 
13 | CCN(CC)c1nc(NC2CCCCC2)c2nc(N(CC)CC)nc(NC3CCCCC3)c2n1 |  | > 100 µM |  | > 100 µM |  | > 100 µM |  | > 100 µM |  | > 100 µM |  | > 100 µM |  | > 100 µM |  | > 100 µM |  |  | > 100 µM | 
14 | COC(=O)/C(=C/c1ccc(OC)cc1)C(C(=O)O)=C1CCCCC1 |  | > 100 µM |  |  |  | > 100 µM |  | > 100 µM |  |  |  | > 100 µM |  | > 100 µM |  | > 100 µM |  | > 100 µM | > 100 µM | 
15 | Cc1cn2c(/C=N/N=C(N)N)c(-c3ccncc3)nc2s1 | 18.5 µM | 32.5 µM |  |  | 44.1 µM | > 100 µM | 18.9 µM | 33.8 µM | > 100 µM | > 100 µM | 20.1 µM | 46.8 µM | 17.6 µM | 32.1 µM | 16.8 µM | 30.4 µM | > 100 µM | > 100 µM | 22.4 µM | 7.16 µM
16 | CCC(C)(O)c1cn(-c2ccc(S(=O)(=O)O)cc2)nn1 (configuration not stated) |  | > 100 µM |  | > 100 µM |  | > 100 µM |  | > 100 µM |  |  |  | > 100 µM |  | > 100 µM |  | > 100 µM |  | > 100 µM | > 100 µM | 
17 | CC(C)(C)c1nc(-c2cccc(NS(=O)(=O)c3c(F)cccc3F)c2F)c(-c2ccnc(N)n2)s1 | 0.211 µM | > 100 µM | < 0.01 µM | > 100 µM | 22.2 µM | 81.1 µM | 23.9 µM | > 100 µM | 50.9 µM | > 100 µM | < 0.01 µM | > 100 µM | 26.1 µM | > 100 µM | 30.4 µM | > 100 µM |  |  | > 86.2 µM | 21.7 µM
18 | COc1cccc2nc3c(C(=O)NCCN(C)C)cccc3nc12 |  | > 100 µM |  | 28.8 µM |  | 80.1 µM |  | > 57.7 µM |  |  |  | 32 µM |  | > 100 µM |  | 21 µM |  | > 100 µM | 25.7 µM | 

— PubChem BioAssay (NCI)
